Source: patent US20100076015A1, “Aminopyridine Derivatives” (VANTIA LIMITED, priority 2008, published 2010)

What follows are compounds tested against T1, Human KLK1 (Homo sapiens, UniProt P06870) (assay: Determination of the IC50 for KLK1 (fluorogenic substrate H-DVal-Leu-Arg-AFC)). Settings: 37° C.
T1 construct: purchased Callbiochem (Calbiochem)
Type: biochemical
How it was run: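 Test compound at various concentrations was incubated with human KLK1 and the fluorogenic substrate H-DVal-Leu-Arg-AFC at 37° C. Absorbance change at 410 nm gave the initial reaction rate, from which IC50 was obtained.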

T1 sequence (P06870 25-262): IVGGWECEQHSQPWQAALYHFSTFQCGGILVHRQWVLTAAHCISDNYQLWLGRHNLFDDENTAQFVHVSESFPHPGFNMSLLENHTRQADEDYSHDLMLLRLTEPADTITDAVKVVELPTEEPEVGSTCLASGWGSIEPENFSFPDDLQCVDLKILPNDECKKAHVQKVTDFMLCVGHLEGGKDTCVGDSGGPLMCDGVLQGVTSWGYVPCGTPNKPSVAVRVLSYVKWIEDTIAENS

**Q.** Which IC50 does the source give for `CCN(CC)[C@H](CO)C(=O)N[C@@H](Cc1ccc(F)c(F)c1)C(=O)NCc1ccc(N)nc1` [Example 363, (R)—N-[(S)-1-[(6-Amino-pyridin-3-ylmethyl)-carbamoyl]-2-(3,4-difluoro-phenyl)-ethyl]-2-diethylamino-3-hydroxy-propionamide] here?
**A.** 84.4 nM

**Q.** How did the IC50 turn out when `Cc1cc(C)c(C(=O)N[C@@H](Cc2ccc(Cl)c(Cl)c2)C(=O)NCc2ccc(N)nc2C)[nH]1` [Example 280, 3,5-Dimethyl-1H-pyrrole-2-carboxylic acid [(S)-1-[(6-amino-2-methyl-pyridin-3-ylmethyl)-carbamoyl]-2-(3,4-dichloro-phenyl)-ethyl]-amide] was run?
**A.** 1.9 nM

**Q.** For `Cn1c(C(=O)N[C@@H](Cc2cccc3ccccc23)C(=O)NCc2ccc(N)nc2)cc2ccccc21` [Example 306, 1-Methyl-1H-indole-2-carboxylic acid {(S)-1-[(6-amino-pyridin-3-ylmethyl)-carbamoyl]-2-naphthalen-1-yl-ethyl}-amide], which IC50 is on record?
**A.** 163 nM

**Q.** For `CCN(C)[C@@H](C)C(=O)N[C@@H](Cc1cccc(C(F)(F)F)c1)C(=O)NCc1ccc(N)nc1` [Example 416, (S)—N-[(S)-1-[(6-Amino-pyridin-3-ylmethyl)-carbamoyl]-2-(3-trifluoromethyl-phenyl)-ethyl]-2-(ethyl-methyl-amino)-propionamide], which IC50 is on record?
**A.** 6.2 nM

**Q.** For `Nc1ccc(CNC(=O)[C@H](Cc2ccccc2Cl)NC(=O)[C@H]2CCCCN2)cn1` [Example 76, (R)-Piperidine-2-carboxylic acid [(S)-1-[(6-amino-pyridin-3-ylmethyl)-carbamoyl]-2-(2-chloro-phenyl)-ethyl]-amide], which IC50 is on record?
**A.** 21.8 nM

**Q.** How did the IC50 turn out when `CNC(C)(C)C(=O)N[C@@H](Cc1ccc(F)c(F)c1)C(=O)NCc1ccc(N)nc1` [Example 86, N-[(S)-1-[(6-Amino-pyridin-3-ylmethyl)-carbamoyl]-2-(3,4-difluoro-phenyl)-ethyl]-2-methyl-2-methylamino-propionamide] was run?
**A.** 15.5 nM

**Q.** Which IC50 does the source give for `CN1CCC[C@@H]1C(=O)N[C@@H](Cc1csc2ccccc12)C(=O)NCc1ccc(N)nc1` [Example 95, (R)-1-Methyl-pyrrolidine-2-carboxylic acid {(S)-1-[(6-amino-pyridin-3-ylmethyl)-carbamoyl]-2-benzo[b]thiophen-3-yl-ethyl}-amide] here?
**A.** 1.8 nM

**Q.** For `Cc1cc(C)c(C(=O)N[C@@H](Cc2ccc(-c3ccccc3)cc2)C(=O)NCc2ccc(N)nc2)[nH]1` [Example 252, 3,5-Dimethyl-1H-pyrrole-2-carboxylic acid {(S)-1-[(6-amino-pyridin-3-ylmethyl)-carbamoyl]-2-biphenyl-4-yl-ethyl}-amide], which IC50 is on record?
**A.** 43.2 nM

**Q.** Which IC50 does the source give for `Cc1cccc(C[C@H](NC(=O)c2[nH]ccc2C)C(=O)NCc2ccc(N)nc2)c1` [Example 268, 3-Methyl-1H-pyrrole-2-carboxylic acid {(S)-1-[(6-amino-pyridin-3-ylmethyl)-carbamoyl]-2-m-tolyl-ethyl}-amide] here?
**A.** 7.7 nM

**Q.** With `CC(C)N(C)[C@@H](C)C(=O)N[C@@H](C(=O)NCc1ccc(N)nc1)C(O)C1CCCCC1` (stereo partly drawn) [Example 435, (S)—N-{(R)-1-[(6-Amino-pyridin-3-ylmethyl)-carbamoyl]-2-cyclohexyl-2-hydroxy-ethyl}-2-(isopropyl-methyl-amino)-propionamide] as the compound, how does the IC50 read?
**A.** 5 nM

**Q.** `CN(CC(=O)N[C@@H](Cc1ccc(F)c(F)c1)C(=O)NCc1ccc(N)nc1)Cc1cccc(Cl)c1` [Example 164, (S)—N-(6-Amino-pyridin-3-ylmethyl)-2-{2-[(3-chloro-benzyl)-methyl-amino]-acetylamino}-3-(3,4-difluoro-phenyl)-propionamide] was tested. Which IC50 did it give?
**A.** 345 nM

**Q.** For `Cc1ccc(-c2ccc(C(=O)N[C@@H](Cc3cccc4ccccc34)C(=O)NCc3ccc(N)nc3)[nH]2)cc1` [Example 292, 5-p-Tolyl-1H-pyrrole-2-carboxylic acid {(S)-1-[(6-amino-pyridin-3-ylmethyl)-carbamoyl]-2-naphthalen-1-yl-ethyl}-amide], which IC50 is on record?
**A.** 31.5 nM

**Q.** `CC(C)N1CCC[C@@H]1C(=O)N[C@@H](Cc1ccncc1)C(=O)NCc1ccc(N)nc1` [Example 129, (R)-1-Isopropyl-pyrrolidine-2-carboxylic acid {(S)-1-[(6-amino-pyridin-3-ylmethyl)-carbamoyl]-2-pyridin-4-yl-ethyl}-amide] was tested. Which IC50 did it give?
**A.** 215 nM

**Q.** Which IC50 does the source give for `Cc1nc(N)ccc1CNC(=O)[C@@H](Cc1cccc(Cl)c1)NC(=O)c1cc2ccccc2[nH]1` [Example 315, 1H-Indole-2-carboxylic acid [(R)-1-[(6-amino-2-methyl-pyridin-3-ylmethyl)-carbamoyl]-2-(3-chloro-phenyl)-ethyl]-amide] here?
**A.** 68.6 nM

**Q.** Which IC50 does the source give for `Nc1ccc(CNC(=O)[C@H](Cc2cc(F)c(F)cc2F)NC(=O)c2cc3ccccc3[nH]2)cn1` [Example 324, 1H-Indole-2-carboxylic acid [(S)-1-[(6-amino-pyridin-3-ylmethyl)-carbamoyl]-2-(2,4,5-trifluoro-phenyl)-ethyl]-amide] here?
**A.** 68.4 nM

**Q.** `Nc1ccc(CNC(=O)[C@H](Cc2ccc(Cl)c(Cl)c2)NC(=O)[C@@H](N)c2ccccc2)cn1` [Example 58, (S)-2-((S)-2-Amino-2-phenyl-acetylamino)-N-(6-amino-pyridin-3-ylmethyl)-3-(3,4-dichloro-phenyl)-propionamide] was tested. Which IC50 did it give?
**A.** 48.6 nM

**Q.** How did the IC50 turn out when `CCC(C)[C@@H](N)C(=O)N[C@@H](C(=O)NCc1ccc(N)nc1)C(C1CCCCC1)C1CCCCC1` (stereo partly drawn) [Example 214, (R)-2-Amino-3-methyl-pentanoic acid {(R)-1-[(6-amino-pyridin-3-ylmethyl)-carbamoyl]-2,2-dicyclohexyl-ethyl}-amide] was run?
**A.** 16.9 nM

**Q.** `CCC(C)[C@@H](NC)C(=O)N[C@@H](Cc1ccc(C(C)(C)C)cc1)C(=O)NCc1ccc(N)nc1` (stereo partly drawn) [Example 52, (R)-3-Methyl-2-methylamino-pentanoic acid [(S)-1-[(6-amino-pyridin-3-ylmethyl)-carbamoyl]-2-(4-tert-butyl-phenyl)-ethyl]-amide] was tested. Which IC50 did it give?
**A.** 24.5 nM

**Q.** With `Nc1ccc(CNC(=O)[C@H](NC(=O)[C@@H]2CCCN2)C(C2CCCCC2)C2CCCCC2)cn1` [Example 215, (S)-Pyrrolidine-2-carboxylic acid {(R)-1-[(6-amino-pyridin-3-ylmethyl)-carbamoyl]-2,2-dicyclohexyl-ethyl}-amide] as the compound, how does the IC50 read?
**A.** 12.6 nM

**Q.** For `CCCN(CCC)[C@@H](C)C(=O)N[C@@H](CC1CCCCC1)C(=O)NCc1ccc(N)nc1` [Example 385, (S)—N-{(S)-1-[(6-Amino-pyridin-3-ylmethyl)-carbamoyl]-2-cyclohexyl-ethyl}-2-dipropylaminopropionamide], which IC50 is on record?
**A.** 107 nM

**Q.** Which IC50 does the source give for `CN1CCC[C@@H]1C(=O)N[C@@H](Cc1ccccc1C(F)(F)F)C(=O)NCc1ccc(N)nc1` [Example 111, (R)-1-Methyl-pyrrolidine-2-carboxylic acid [(S)-1-[(6-amino-pyridin-3-ylmethyl)-carbamoyl]-2-(2-trifluoromethyl-phenyl)-ethyl]-amide] here?
**A.** 15 nM

**Q.** With `Nc1ccc(CNC(=O)[C@H](Cc2ccc(F)cc2)NC(=O)c2nc3ccccc3[nH]2)cn1` [Example 333, 1H-Benzoimidazole-2-carboxylic acid [(S)-1-[(6-amino-pyridin-3-ylmethyl)-carbamoyl]-2-(4-fluoro-phenyl)-ethyl]-amide] as the compound, how does the IC50 read?
**A.** 184 nM

**Q.** How did the IC50 turn out when `Cc1nc(N)ccc1CNC(=O)[C@H](Cc1ccccc1C(F)(F)F)NC(=O)c1cc2ccccc2[nH]1` [Example 322, 1H-Indole-2-carboxylic acid [(S)-1-[(6-amino-2-methyl-pyridin-3-ylmethyl)-carbamoyl]-2-(2-trifluoromethyl-phenyl)-ethyl]-amide] was run?
**A.** 12.4 nM

**Q.** With `CC(C)N(C)CC(=O)N[C@@H](Cc1ccc(Cl)c(Cl)c1)C(=O)NCc1ccc(N)nc1` [Example 150, (S)—N-(6-Amino-pyridin-3-ylmethyl)-3-(3,4-dichloro-phenyl)-2-[2-(isopropyl-methyl-amino)-acetylamino]-propionamide] as the compound, how does the IC50 read?
**A.** 12 nM

**Q.** Which IC50 does the source give for `CC(C1CCCCC1)[C@@H](NC(=O)[C@H](C)N(C)C(C)C)C(=O)NCc1ccc(N)nc1` (stereo partly drawn) [Example 436, (R)—N-(6-Amino-pyridin-3-ylmethyl)-3-cyclohexyl-2-[(S)-2-(isopropyl-methyl-amino)-propionylamino]-butyramide] here?
**A.** 3.6 nM

**Q.** `CC(C)C[C@H](NC(=O)[C@H](C)N(C)C(C)C)C(=O)NCc1ccc(N)nc1` [Example 427, (S)-2-[(S)-2-(Isopropyl-methyl-amino)-propionylamino]-4-methyl-pentanoic acid (6-amino-pyridin-3-ylmethyl)-amide] was tested. Which IC50 did it give?
**A.** 106 nM

**Q.** `CCC(C)[C@H](NC)C(=O)N[C@@H](CC1CCCCC1)C(=O)NCc1ccc(N)nc1` (stereo partly drawn) [Example 339, (S)-3-Methyl-2-methylamino-pentanoic acid {(S)-1-[(6-amino-pyridin-3-ylmethyl)-carbamoyl]-2-cyclohexyl-ethyl}-amide] was tested. Which IC50 did it give?
**A.** 39.8 nM

**Q.** How did the IC50 turn out when `CC(C)N1CCC[C@@H]1C(=O)N[C@@H](Cc1ccc(Cl)c(Cl)c1)C(=O)NCc1ccc(N)nc1` [Example 117, (R)-1-Isopropyl-pyrrolidine-2-carboxylic acid [(S)-1-[(6-amino-pyridin-3-ylmethyl)-carbamoyl]-2-(3,4-dichloro-phenyl)-ethyl]-amide] was run?
**A.** 0.45 nM

**Q.** `CN(C)[C@H](Cc1ccccc1)C(=O)N[C@@H](Cc1ccc(F)c(F)c1)C(=O)NCc1ccc(N)nc1` [Example 185, (R)—N-[(S)-1-[(6-Amino-pyridin-3-ylmethyl)-carbamoyl]-2-(3,4-difluoro-phenyl)-ethyl]-2-dimethylamino-3-phenyl-propionamide] was tested. Which IC50 did it give?
**A.** 14.5 nM

**Q.** How did the IC50 turn out when `Nc1ccc(CNC(=O)[C@H](Cc2cccc(Cl)c2)NC(=O)[C@H]2CCCCN2)cn1` [Example 77, (R)-Piperidine-2-carboxylic acid [(S)-1-[(6-amino-pyridin-3-ylmethyl)-carbamoyl]-2-(3-chloro-phenyl)-ethyl]-amide] was run?
**A.** 2.9 nM

**Q.** How did the IC50 turn out when `Nc1ccc(CNC(=O)[C@H](Cc2ccc(Cl)c(Cl)c2)NC(=O)[C@H]2CCCCN2)cn1` [Example 63, (R)-Piperidine-2-carboxylic acid [(S)-1-[(6-amino-pyridin-3-ylmethyl)-carbamoyl]-2-(3,4-dichloro-phenyl)-ethyl]-amide] was run?
**A.** 0.66 nM
